Experimental data as given in the NIST ThermoML archive (doi:10.1021/je100042c).

Conditions: 101.33 kPa, Liquid; for viscosity: Concentric cylinders viscometry; for mass density: Vibrating tube method

CCCCCCCC/C=C\CCCCCCCC(=O)OCC [ethyl (Z)-9-octadeceneoate]
Conditions	mass density [kg/m3]	viscosity [mPa·s]
278.15 K	880.5	10.39
283.15 K	876.9	8.839
288.15 K	873.2	7.595
293.15 K	869.5	6.591
298.15 K	865.9	5.769
303.15 K	862.2	5.092
308.15 K	858.5	4.525
313.15 K	854.9	4.048
318.15 K	851.3	3.641
323.15 K	847.6	3.292
328.15 K	844	2.99
333.15 K	840.4	2.729
338.15 K	836.8	2.502
343.15 K	833.1	2.301
348.15 K	829.5	2.124
353.15 K	825.9	1.967
358.15 K	822.3	1.827
363.15 K	818.7	1.702

CCCCCCCCCCCCCCCC(=O)OCC [ethyl hexadecanoate]
Conditions	mass density [kg/m3]	viscosity [mPa·s]
303.15 K	852.6	5.011
308.15 K	848.9	4.44
313.15 K	845.2	3.956
318.15 K	841.5	3.547
323.15 K	837.9	3.197
328.15 K	834.2	2.897
333.15 K	830.5	2.637
338.15 K	826.9	2.412
343.15 K	823.2	2.214
348.15 K	819.5	2.039
353.15 K	815.9	1.884
358.15 K	812.2	1.746
363.15 K	808.6	1.623

CCCCCCCCCCCC(=O)OC [methyl dodecanoate]
Conditions	mass density [kg/m3]	viscosity [mPa·s]
283.15 K	877.7	4.068
288.15 K	873.7	3.577
293.15 K	869.8	3.167
298.15 K	865.8	2.824
303.15 K	861.8	2.536
308.15 K	857.9	2.289
313.15 K	853.9	2.078
318.15 K	850	1.894
323.15 K	846.1	1.735
328.15 K	842.1	1.595
333.15 K	838.1	1.471
338.15 K	834.2	1.362
343.15 K	830.2	1.265
348.15 K	826.2	1.178
353.15 K	822.3	1.1

CCCCCCCC(=O)OC [methyl octanoate]
Conditions	mass density [kg/m3]	viscosity [mPa·s]
283.15 K	885.9	1.71
288.15 K	881.5	1.559
293.15 K	877.1	1.427
298.15 K	872.8	1.313
303.15 K	868.4	1.212
308.15 K	864	1.123
313.15 K	859.6	1.044
318.15 K	855.2	0.9733
323.15 K	850.8	0.9093
328.15 K	846.4	0.8518
333.15 K	841.9	0.7998
338.15 K	837.5	0.7528
343.15 K	833	0.7101
348.15 K	828.5	0.6713
353.15 K	824	0.6359

CCCCCCCCCCCCCCCCCC(=O)OC [methyl octadecanoate]
Conditions	mass density [kg/m3]	viscosity [mPa·s]
313.15 K	849.8	4.986
318.15 K	846.1	4.435
323.15 K	842.5	3.965
328.15 K	838.9	3.568
333.15 K	835.3	3.225
338.15 K	831.7	2.929
343.15 K	828.1	2.672
348.15 K	824.5	2.448
353.15 K	820.9	2.25
358.15 K	817.3	2.076
363.15 K	813.7	1.922

CCCCCCCC/C=C\CCCCCCCC(=O)OC [methyl cis-9-octadecenoate]
Conditions	mass density [kg/m3]	viscosity [mPa·s]
283.15 K	881.4	8.699
288.15 K	877.7	7.452
293.15 K	874.1	6.45
298.15 K	870.4	5.634
303.15 K	866.8	4.961
308.15 K	863.1	4.401
313.15 K	859.5	3.93
318.15 K	855.9	3.531
323.15 K	852.3	3.189
328.15 K	848.7	2.894
333.15 K	845.1	2.638
338.15 K	841.5	2.416
343.15 K	837.9	2.222
348.15 K	834.3	2.05
353.15 K	830.7	1.897

CCCCC/C=C\C/C=C\CCCCCCCC(=O)OC [methyl (Z,Z)-9,12-octadecadienate]
Conditions	mass density [kg/m3]	viscosity [mPa·s]
278.15 K	897.2	7.466
283.15 K	893.5	6.466
288.15 K	889.9	5.655
293.15 K	886.2	4.982
298.15 K	882.5	4.428
303.15 K	878.8	3.961
308.15 K	875.2	3.567
313.15 K	871.5	3.227
318.15 K	867.9	2.936
323.15 K	864.3	2.682
328.15 K	860.7	2.461
333.15 K	857	2.266
338.15 K	853.4	2.093
343.15 K	849.8	1.94
348.15 K	846.1	1.804
353.15 K	842.5	1.682
358.15 K	838.7	–
363.15 K	835.1	–

CCCCCCCCCC(=O)OCC [ethyl decanoate]
Conditions	mass density [kg/m3]	viscosity [mPa·s]
283.15 K	872.5	2.896
288.15 K	868.4	2.588
293.15 K	864.3	2.326
298.15 K	860.2	2.103
303.15 K	856.2	1.911
308.15 K	852.1	1.745
313.15 K	848	1.6
318.15 K	843.9	1.473
323.15 K	839.8	1.36
328.15 K	835.7	1.259
333.15 K	831.6	1.169
338.15 K	827.5	1.089
343.15 K	823.4	1.017
348.15 K	819.2	0.9516
353.15 K	815.1	0.8929

CCCCCCCCCCCCCCCC(=O)OC [methyl hexadecanoate]
Conditions	mass density [kg/m3]	viscosity [mPa·s]
308.15 K	854.5	4.212
313.15 K	850.8	3.755
318.15 K	847	3.368
323.15 K	843.3	3.038
328.15 K	839.6	2.754
333.15 K	835.8	2.508
338.15 K	832.1	2.295
343.15 K	828.4	2.107
348.15 K	824.7	1.942
353.15 K	821	1.796
358.15 K	817.3	1.666
363.15 K	813.6	1.55

CCCCCCCCCCCCCC(=O)OCC [ethyl tetradecanoate]
Conditions	mass density [kg/m3]	viscosity [mPa·s]
283.15 K	868.7	6.26
288.15 K	864.8	5.43
293.15 K	861	4.749
298.15 K	857.2	4.188
303.15 K	853.4	3.721
308.15 K	849.6	3.328
313.15 K	845.8	2.993
318.15 K	842	2.706
323.15 K	838.2	2.458
328.15 K	834.5	2.242
333.15 K	830.7	2.055
338.15 K	826.9	1.889
343.15 K	823.1	1.743
348.15 K	819.4	1.614
353.15 K	815.6	1.499

CCCCCCCCCCCC(=O)OCC [ethyl dodecanoate]
Conditions	mass density [kg/m3]	viscosity [mPa·s]
283.15 K	870.3	4.335
288.15 K	866.4	3.813
293.15 K	862.4	3.38
298.15 K	858.5	3.015
303.15 K	854.6	2.707
308.15 K	850.7	2.446
313.15 K	846.8	2.22
318.15 K	842.9	2.024
323.15 K	839	1.853
328.15 K	835.1	1.704
333.15 K	831.1	1.57
338.15 K	827.2	1.453
343.15 K	823.3	1.349
348.15 K	819.4	1.254
353.15 K	815.4	1.171

CCCCCCCCCCCCCCCCCC(=O)OCC [ethyl octadecanoate]
Conditions	mass density [kg/m3]	viscosity [mPa·s]
313.15 K	844.8	5.082
318.15 K	841.1	4.529
323.15 K	837.5	4.057
328.15 K	833.9	3.654
333.15 K	830.3	3.307
338.15 K	826.7	3.007
343.15 K	823.1	2.744
348.15 K	819.5	2.515
353.15 K	815.9	2.313
358.15 K	812.3	2.135
363.15 K	808.7	1.978
